The test deals with NR1-1a/NR2B receptors (Homo sapiens, UniProt Q05586+Q13224). The test is described as follows: Two electrode voltage clamp of Xenopus oocytes expressing NR1-1a and NR2B NMDA receptor subunits; inhibition of glutamate/glycine current at pH 6.9 and 7.6. In kind it is cell-based. The note with it: for Fold increase in potency between pH 7.6 and 6.9: IC50 at pH 7.6/IC50 at pH 6.9. As for the experimental part: Current recordings were obtained using two electrode voltage clamp of Xenopus oocytes injected with cRNA encoding the NR1-1a and NR2B NMDA receptor subunits. Cells were injected with 5-15 ng of cRNA encoding NR1-1a in combination with a 2-3 fold greater amount of either NR2B cRNA. Injected oocytes were maintained at 17° C. in Barths solution containing penicillin (10 U/ml) and streptomycin (10 μg/ml) for 2-6 days, after which recordings were made at room temperature from oocytes continuously perfused in a standard frog Ringers solution. This solution was composed of (in mM): 90 NaCl, 1.0 KCl, 10 Hepes and 0.5 BaCl2. Recording pipettes were filled with 0.3M KCl. Saturating concentrations of glutamate (20-50 μM) and glycine (20 μM) were used to activate the receptor. Drugs were prepared daily from frozen stock solutions in DMSO. Glutamate/glycine-activated currents were typically elicited from a holding potential of −20 to −40 mV. Current signals were digitized and analyzed using custom acquisition software. To study the effects of pH, oocytes were perfused with Ringer's solution at the desired pH until a stable baseline had been reached before subsequent agonist application.
Oocytes in which the glutamate/glycine current was not stable or in which the baseline holding current drifted were discarded. Inhibition of the glutamate/glycine current by drugs was examined by applying 1-4 different concentrations of the antagonist to each oocyte. […] On average recordings were made from 14 oocytes per condition.

Setting [1] is: Table A, pH 6.9, NR1-1a/NR2B in Xenopus oocytes, read-out: IC50 at pH 6.9.

Read-outs that look alike come from different tables or passages of the source.

Sequence of NR1-1a/NR2B receptors (Q13224 27-1484, other chains not shown): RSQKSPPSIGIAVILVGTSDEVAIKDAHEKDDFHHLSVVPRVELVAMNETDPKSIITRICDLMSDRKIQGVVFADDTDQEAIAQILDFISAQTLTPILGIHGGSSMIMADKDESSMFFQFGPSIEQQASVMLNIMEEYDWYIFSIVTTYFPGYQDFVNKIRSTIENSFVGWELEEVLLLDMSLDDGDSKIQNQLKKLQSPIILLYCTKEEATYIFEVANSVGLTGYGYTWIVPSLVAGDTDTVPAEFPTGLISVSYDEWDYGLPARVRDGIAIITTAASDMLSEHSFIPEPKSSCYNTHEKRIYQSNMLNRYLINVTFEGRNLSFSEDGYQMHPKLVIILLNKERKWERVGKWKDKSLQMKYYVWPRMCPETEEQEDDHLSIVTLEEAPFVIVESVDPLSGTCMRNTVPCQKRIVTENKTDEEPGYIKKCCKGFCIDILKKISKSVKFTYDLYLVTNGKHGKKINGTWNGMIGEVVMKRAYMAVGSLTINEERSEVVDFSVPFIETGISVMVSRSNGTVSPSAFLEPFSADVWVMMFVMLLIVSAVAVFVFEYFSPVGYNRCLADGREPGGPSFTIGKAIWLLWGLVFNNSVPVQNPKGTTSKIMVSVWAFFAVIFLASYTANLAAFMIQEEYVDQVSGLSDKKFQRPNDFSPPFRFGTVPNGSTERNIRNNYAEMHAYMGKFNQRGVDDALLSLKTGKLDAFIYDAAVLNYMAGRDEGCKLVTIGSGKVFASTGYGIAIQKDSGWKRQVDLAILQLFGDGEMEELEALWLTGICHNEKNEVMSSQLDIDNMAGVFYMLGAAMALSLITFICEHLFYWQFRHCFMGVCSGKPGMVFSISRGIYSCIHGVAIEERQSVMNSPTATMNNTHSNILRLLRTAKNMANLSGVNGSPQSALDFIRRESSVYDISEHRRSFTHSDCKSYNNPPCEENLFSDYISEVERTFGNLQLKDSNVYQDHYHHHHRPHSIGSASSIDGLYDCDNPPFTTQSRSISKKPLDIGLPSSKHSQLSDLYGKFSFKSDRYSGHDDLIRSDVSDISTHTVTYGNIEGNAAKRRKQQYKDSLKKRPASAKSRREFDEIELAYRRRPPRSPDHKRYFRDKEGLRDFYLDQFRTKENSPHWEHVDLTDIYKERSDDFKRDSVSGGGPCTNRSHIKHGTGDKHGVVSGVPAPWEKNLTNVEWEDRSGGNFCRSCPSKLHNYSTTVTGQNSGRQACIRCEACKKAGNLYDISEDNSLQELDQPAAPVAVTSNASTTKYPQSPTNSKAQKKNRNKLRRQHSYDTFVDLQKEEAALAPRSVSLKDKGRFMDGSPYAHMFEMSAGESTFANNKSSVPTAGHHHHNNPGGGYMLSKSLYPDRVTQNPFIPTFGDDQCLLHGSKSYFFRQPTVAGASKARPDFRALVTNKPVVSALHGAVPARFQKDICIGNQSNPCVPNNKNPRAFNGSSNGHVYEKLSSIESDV

On to `OC(CNCCc1ccc(Cl)c(Cl)c1)COc1ccc(OC(F)(F)F)cc1` (racemic) [Compound 93-16], for which, for the setting “Table D”, the “Fold increase in potency between pH 7.6 and 6.9” value (from here on “Fold increase”) was 4.82. In addition, the half-maximal inhibitory concentration (IC50) (Table D, pH 6.9, NR1-1a/NR2B in Xenopus oocytes, read-out: IC50 at pH 6.9) was 11.2 µM.

Consider `CN(CCc1ccc(Cl)c(Cl)c1)C[C@H](O)COc1ccc(NS(C)(=O)=O)cc1` [93-2 (S), (S)-1-(4-Methanesulphonamidephenoxy)3-(N-methyl-3,4-dichloro-phenylethylamino)-2-propanol], for which the “Fold increase” value was 5.87 (Table A) and 5.87 (Table C). Moreover, the IC50 under setting [1] worked out at 0.063 µM.

Consider `CCN(CCc1ccc(Cl)c(Cl)c1)C[C@H](O)COc1ccc(NS(C)(=O)=O)cc1` [93-5 (S), (S)-1-(4-Methanesulphonamidephenoxy)-3-(N-ethyl-3,4-dichloro-phenylethylamino)-2-propanol], for which the “Fold increase” value runs as follows: (Table A) 8.00; (Table C) 8.00. In addition, the concentration for half-maximal inhibition (IC50) under setting [1] was 0.02 µM.

Regarding `CCCN(CCc1ccc(Cl)c(Cl)c1)C[C@H](O)COc1ccc(NS(C)(=O)=O)cc1` [93-6 (S), (S)-1-(4-Methanesulphonamidephenoxy)3-(N-propyl-3,4-dichloro-phenylethylamino)-2-propanol], the “Fold increase” value (Table A) is 6.54; the “Fold increase” value (Table C) is listed as 6.54. Also, the IC50 under setting [1] turned out to be 0.111 µM.

Take `CN(c1ccc(OC[C@@H](O)CNCCc2ccc(Cl)c(Cl)c2)cc1)S(C)(=O)=O` [93-7 (S), (S)-1-(4-N-methyl-methanesulphonamidephenoxy)-3-(3,4-dichloro-phenylethylamino)-2-propanol]: the IC50 came out at 2.33 µM. For the same compound, the “Fold increase” value (Table D) was 5.51.

As for `CS(=O)(=O)Nc1cccc(OC[C@@H](O)CNCCc2ccc(Cl)c(Cl)c2)c1` [93-9 (S), (S)-1-(3-Methanesulphonamidephenoxy)3-(3,4-dichlorophenylcthyl-amino)-2-propanol], the half-inhibitory concentration (IC50) came to 0.208 µM. Also, under “Table D”, the “Fold increase” value is listed as 8.19.

As to `O=[N+]([O-])c1ccc(OC[C@@H](O)CNCCc2ccc(Cl)c(Cl)c2)cc1` [93-10 (S), (S)-1-(4-Nitrophenoxy)3-(3,4-dichlorophenylethylamino)-2propanol], the half-inhibitory concentration (IC50) came to 12.1 µM. The “Fold increase” value (Table D) was 1.60.

For the compound `CC(=O)OC(COc1ccc(NS(C)(=O)=O)cc1)CN(CCc1ccc(Cl)c(Cl)c1)C(C)=O` [93-28 (S), 1-(4-Methanesulphonamidophenoxy)-3-(N-acetyl-3,4-dichloro-phenylethylamino)-2-propyl acetate], where the note is “Table A”, the “Fold increase” value is given as 11.1. The IC50 under setting [1] came to 1.64 µM.

Turning to `O=S(=O)(Nc1ccc(OCC(O)CNCCc2ccc(Cl)c(Cl)c2)cc1)c1ccccc1` [93-29 (S), 1-(4-benzenesulphonamidophenoxy)-3-(3,4-dichloro-phenylethyl-amino)-2-propanol], the IC50 worked out at 1.16 µM. The “Fold increase” value (Table A) amounted to 18.0. In addition, the “Fold increase” value (Table D) was 18.02.

Take `CS(=O)(=O)Nc1ccc(OC[C@@H](O)CN(CCc2ccc(Cl)c(Cl)c2)Cc2ccccc2)cc1` [93-30 (S), (S)-1-(4-Methanesulphonamidephenoxy)-3-(N-benzyl-3,4-dichloro-phenylethylamino)-2-propanol]: the “Fold increase” value by setting is: (Table A) 16.8; (Table C) 16.8. Further, the concentration for half-maximal inhibition (IC50) under setting [1] was determined as 0.07 µM.

Turning to `CCCCN(CCc1ccc(Cl)c(Cl)c1)C[C@H](O)COc1ccc(NS(C)(=O)=O)cc1` [93-31 (S), (S)-1-(4-Methanesulphonamidephenoxy)-3-(N-butyl-3,4-dichloro-phenylethylamino)-2-propanol], the “Fold increase” value is recorded as 51.2 (Table A) and 51.2 (Table C). For the same compound, the IC50 under setting [1] came to 0.058 µM.

`CS(=O)(=O)Nc1ccccc1OC[C@@H](O)CNCCc1ccc(Cl)c(Cl)c1` [93-32 (S), 1-(2-Methanesulphonamidephenoxy)-3-(3,4-dichlorophenylethylamino)-2-propanol]: the half-maximal inhibitory concentration (IC50) came out at 17.9 µM.

A word on the IC50: it is the midpoint of a concentration-inhibition curve.
